# Experimental data reported in patent publication US20060286159A1 (priority 2003, published 2006).
# “Also recorded” adds a separate entry of the source.
# What was measured:
# Assay type in all cases: in vivo, human
# [1] = tested on: chronic supraspinatus tendinopathy
# Excerpt: (§1) Three clinical trials were approved by an institutional Ethics Committee. Patients with clinical diagnoses of the specified tendinopathies were recruited through newspaper advertisements and private consulting rooms. All subjects were over 18 years of age, and gave written informed consent.
# (§2) In the non-insertional Achilles tendinopathy trial, there were 65 patients (84 Achilles tendons) with 40 men and 25 women enrolled in the study, having a median age of 49 years (range 24 to 77 years), and a median duration of symptoms prior to the study of 16 months (range 4 to 147 months). In the extensor tendinopathy trial, there were 86 patients (95 elbows), with 42 males and 44 females, having a median age of 46 years (range 30 to 74 years), and a median duration of symptoms of 17 months (range 3 to 232 months). In the supraspinatus tendinopathy trial, there were 53 patients (57 shoulders), with 24 males and 29 females, having a median age of 52 years (range 25 to 79 years), and a median symptom duration of 14 months (range 4 to 96).
# (§3) Diagnostic criteria for patient inclusion in the respective trials were as follows. The diagnosis of chronic non-insertional Achilles tendinopathy was based on an insidious onset of Achilles tendon pain, a tender nodule localized to the region 2 to 6 centimeters from the calcaneal insertion, and an ultrasound examination that excluded a frank tendon tear. The diagnosis of chronic extensor tendinopathy at the elbow was based on an insidious onset of lateral elbow pain, tenderness localized to the lateral humeral epicondyle and extensor carpi radialis brevis tendon, pain in the lateral elbow with resisted wrist or third metacarpophalangeal joint extension, and an ultrasound examination that excluded a frank tendon tear. The diagnosis of chronic supraspinatus tendinopathy was based on positive impingement signs (internal or external rotation), pain with supraspinatus muscle testing, and magnetic resonance imaging (MRI) high signal intensity without frank tear in the supraspinatus tendon.
# (§4) Patients were excluded if they had tendinopathy of less than three months duration, current pregnancy, previous surgery on the affected limb or tendon, dislocation of the ipsilateral limb joints, distal neurological signs, a local corticosteroid injection in the previous three months, the current use of nitrate medications or phosphodiesterase inhibitors such as Viagra™, a family history of arthritis other than osteoarthritis, or extra-articular features of seronegative arthropathies. Generally, every participating patient could be considered to have persistent active tendinopathy.
# (§5) The patients were randomly allocated into two groups. […] The active and placebo patches were indistinguishable from one another. The randomization was controlled by the senior pharmacist at the institution who also supervised the packaging of transdermal patches and their distribution to patients. Both the patients and the clinical examiner were blinded as to which group the patients were in, i.e. double-blind.
# (§6) The transdermal patches were intact when distributed, and patients were required to cut the patches into quarters prior to application. Patients were also given a supply of paracetamol tablets (500 mg), and were instructed to use them exclusively for any headaches experienced.
# (§7) Patients were instructed in the application of the patches at their initial visit. They were informed that the dosing regimen was one quarter of a transdermal patch to be applied daily to the skin area closest to the affected tendon. The patches were to be left in situ for 24 hours and then replaced with a new quarter patch. […] Patients were instructed to rotate the patch application site around this point with each new patch application for the six-month study duration in an effort to minimize application site irritation.
# (§8) At the initial clinical assessment, all patients were instructed in the performance of a tendon specific rehabilitation program. […]
# [2] = tested on: Achilles tendinopathy (heels); assay: Three year follow-up study of the Achilles trial of Example 1; details: for Night Pain—All Heels (mean adjusted for baseline) / Pain at Rest—All Heels (mean adjusted for baseline) / Pain With Activity—All Heels (mean adjusted for baseline) / Tenderness—All Heels (mean adjusted for baseline) / Hop Test—All Heels (mean adjusted for baseline): N=32; for Pain With Activity—All Heels (mean adjusted for baseline): scale 0-4; for Tenderness—All Heels (mean adjusted for baseline): scale 0-3; for Hop Test—All Heels (mean adjusted for baseline): pain score 0-10
# Procedure: A three year follow-up study of the experiment presented in Example 1 was performed. […] Among the 52 patients in follow-up study ([…]), 15 had bilateral involvement (7 on the active patch and 8 on placebo). The results are presented in two sets. The follow-up study used the same outcome measures as were used in the original parent study.
# The first set compares the results of the 68 heels and the second set results are shown for the 52 patients by averaging results for patients with bilateral involvement. Analyses were performed as analyses of covariance, with the baseline assessment as the covariate, to adjust the results for baseline differences. Mean results shown in Tables III-XIII below are adjusted for the baseline values.
# [3] = tested on: chronic non-insertional Achilles tendinopathy; assay: Non-insertional Achilles tendinopathy clinical trial (randomized, double blind, placebo controlled)
# Excerpt: as §1, §2, §3, §4, §5, §6, §7, §8
# [4] = week 24, more patients asymptomatic with activities of daily living than placebo, 1.25 mg/24 h patch + rehabilitation
# [5] = 3 years, N=24, placebo 0.51, p=0.09
# [6] = 24 weeks, N=24, placebo 0.86, p=0.09
compound,measurement,setting,value
"O=[N+]([O-])OCC(CO[N+](=O)[O-])O[N+](=O)[O-] [glyceryl trinitrate, 1,2,3-propanetriol trinitrate]",Headache (Days) Average,[1]; GTN group,GTN 6 Days
same,Headache (Days) Median,[1]; GTN group,GTN 4 Days
same,Headache (Days) Total,[1]; GTN group,GTN 127 Days
same,Headache: percentage of patients,[1]; GTN group,(76%)
same,No Side Effects,[1]; GTN group,GTN 30%
same,Tenderness Outcomes vs placebo,[1]; anteroinferior subacromial tenderness,no significant differences
same,Other Noted Side-Effects: Rash,"[1]; application site, GTN group",Rash 8%
same,number needed to treat (NNT),"[1]; excellent result at 24 weeks, Chi square p=0.007",4.5
same,reported rate of headache and average number of headaches experienced vs placebo,"[1]; human, in vivo",significant between-group differences
same,number of days affected by headache vs placebo,[1]; p=0.001,significant increase
same,Discontinuations: Headache,"[1]; patients, all GTN group",Headache 2
same,Paracetamol Average,"[1]; used for headache, GTN group",GTN 7 tablets
same,Paracetamol Median,"[1]; used for headache, GTN group",GTN 2 tablets
same,Paracetamol Total,"[1]; used for headache, GTN group",GTN 138 tablets
same,Improved Patient Outcomes,[1]; [4],22%
same,"patients with excellent improvement, patient reported","[1]; week 24, placebo 24%",46%
same,Night Pain—Average Result Used for Bilateral Patients,"[2]; 3 years, N=24, placebo 0.29, p=0.06",0.07
same,Pain at Rest—Average Result Used for Bilateral Patients,"[2]; 3 years, N=24, placebo 0.39, p=0.08",0.10
same,Hop Test—Average Result Used for Bilateral Patients,[2]; [5],0.15
same,Pain With Activity—Average Result Used for Bilateral Patients,[2]; [5],0.15
same,Tenderness—Average Result Used for Bilateral Patients,"[2]; 3 years, N=24, placebo 0.66, p=0.052",0.33
same,"RTS, %","[2]; 3 years, N=24, placebo 71.4%, p=0.16",87.5%
same,Night Pain—All Heels (mean adjusted for baseline),"[2]; 3 years, placebo 0.27, p=0.07",0.10
same,Pain at Rest—All Heels (mean adjusted for baseline),"[2]; 3 years, placebo 0.35, p=0.07",0.10
same,Pain With Activity—All Heels (mean adjusted for baseline),"[2]; 3 years, placebo 0.50, p=0.059",0.16
same,Tenderness—All Heels (mean adjusted for baseline),"[2]; 3 years, placebo 0.66, p=0.031",0.35
same,Hop Test—All Heels (mean adjusted for baseline),"[2]; 3 years, placebo 0.96, p=0.07",0.36
same,Night Pain—Average Result Used for Bilateral Patients,"[2]; 24 weeks, N=24, placebo 0.34, p=0.11",0.15
same,Pain at Rest—Average Result Used for Bilateral Patients,"[2]; 24 weeks, N=24, placebo 0.46, p=0.20",0.26
same,Hop Test—Average Result Used for Bilateral Patients,[2]; [6],0.44
same,Pain With Activity—Average Result Used for Bilateral Patients,[2]; [6],0.44
same,Tenderness—Average Result Used for Bilateral Patients,"[2]; 24 weeks, N=24, placebo 0.90, p=0.43",0.70
same,Night Pain—All Heels (mean adjusted for baseline),"[2]; 24 weeks, placebo 0.30, p=0.36",0.19
same,Pain at Rest—All Heels (mean adjusted for baseline),"[2]; 24 weeks, placebo 0.41, p=0.35",0.29
same,Pain With Activity—All Heels (mean adjusted for baseline),"[2]; 24 weeks, placebo 0.78, p=0.22",0.52
same,Tenderness—All Heels (mean adjusted for baseline),"[2]; 24 weeks, placebo 0.83, p=0.49",0.69
same,Hop Test—All Heels (mean adjusted for baseline),"[2]; 24 weeks, placebo 1.57, p=0.026",0.61
same,results of each assessment vs placebo,[2]; both at 24 weeks and at 3 years,numerically better results
same,Headache (Days) Average,[3]; GTN group,GTN 5 Days
same,Headache (Days) Median,[3]; GTN group,GTN 4 Days
same,Headache (Days) Total,[3]; GTN group,85 days
same,Headache: percentage of patients,[3]; GTN group,53%
same,No Side Effects,[3]; GTN group,GTN 44%
same,Other Noted Side-Effects: Increase Tinnitus,[3]; GTN group,Tinnitus (3%)
same,Tenderness Outcomes: Achilles tenderness vs placebo,[3]; Week 12 (p=0.02),significant decreases; also recorded: significantly less; also recorded: Decreased Week
same,Pain Outcomes: Achilles tendon pain with activity vs placebo,[3]; Week 12 (p=0.02) / 24 (p=0.03),significant decrease; also recorded: Decreased
same,Pain Outcomes: night pain vs placebo,[3]; Week 12 (p=0.04),significant decrease; also recorded: Decreased
same,Functional Outcomes Measures: Hop Test vs placebo,[3]; Week 24,Increased Hop
same,Force Outcomes: ORI-ASTS mean plantarflexion total work vs placebo,"[3]; Week 24 (p=0.04), from baseline levels",significant increase; also recorded: Increased Mean
same,Other Noted Side-Effects: Rash,"[3]; application site, GTN group","Rash 16%,"
same,number needed to treat (NNT),"[3]; excellent result at 24 weeks, Chi square p=0.001",3.4
same,total amount of paracetamol required for headache treatment vs placebo,[3]; p=0.001,significant increases; also recorded: significant between-group differences
same,Discontinuations: Headache,"[3]; patients, all GTN group",Headache 1
same,Discontinuations: Rash,"[3]; patients, all GTN group","Rash,"
same,Paracetamol Average,"[3]; used for headache, GTN group",GTN 14 tablets
same,Paracetamol Median,"[3]; used for headache, GTN group",GTN 10 tablets
same,Paracetamol Total,"[3]; used for headache, GTN group",GTN 237 tablets
same,pain scores after the 10 hop test vs placebo,[3]; week 24 (p=0.005),significant decrease
same,Improved Patient Outcomes,[3]; [4],29%
same,"patients with excellent improvement (asymptomatic with activities of daily living), patient reported","[3]; week 24, placebo 49%",78%
